Assay results published in PubChem BioAssay AID248 (DTP/NCI, 2004).
Several values for one entry are separate records, joined by “and”; a condition that tells them apart may be missing. Identical values can stand only once. Toxic doses and inconclusive results are not listed. No stated cut-off is given here; in the data, active means T/C of 150% or more; inactive means T/C below 125%.

Tested on: L1210 leukemia ip in BDF1 mice, survival T/C
Test: NCI In Vivo Anticancer Drug Screen. Data for tumor model L1210 Leukemia (intraperitoneal) in B6D2F1 (BDF1) mice
Conditions: endpoint: mean survival time, higher = longer survival
Procedure, shortened: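 Value reflects the ratio of survival in compound-treated mice to survival in vehicle-treated controls, with both groups carrying the same transplanted tumor.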

[1] = dose: 100.0 mg/kg/injection, schedule: Q01DX009 (ip), vehicle: Klucel (hydroxypropylcellulose) (HPC)
[2] = dose: 100.0 mg/kg/injection, schedule: Q04DX003 (ip), vehicle: Klucel (hydroxypropylcellulose) (HPC)
[3] = dose: 200.0 mg/kg/injection, schedule: Q01DX009 (ip), vehicle: Klucel (hydroxypropylcellulose) (HPC)
[4] = dose: 200.0 mg/kg/injection, schedule: Q04DX003 (ip), vehicle: Klucel (hydroxypropylcellulose) (HPC)
[5] = dose: 400.0 mg/kg/injection, schedule: Q01DX009 (ip), vehicle: Klucel (hydroxypropylcellulose) (HPC)
[6] = dose: 400.0 mg/kg/injection, schedule: Q04DX003 (ip), vehicle: Klucel (hydroxypropylcellulose) (HPC)
[7] = dose: 75.0 mg/kg/injection, schedule: Q01DX001 (ip), vehicle: other
[8] = dose: 150.0 mg/kg/injection, schedule: Q01DX001 (ip), vehicle: other
[9] = dose: 300.0 mg/kg/injection, schedule: Q01DX001 (ip), vehicle: other
[10] = dose: 100.0 mg/kg/injection, schedule: Q04DX003 (ip), vehicle: saline
[11] = dose: 200.0 mg/kg/injection, schedule: Q04DX003 (ip), vehicle: saline
[12] = dose: 400.0 mg/kg/injection, schedule: Q04DX003 (ip), vehicle: saline

Measured: T/C

COc1ccc(CCC(C(=O)O)c2ccc(OC)c(OC)c2)cc1OC (stereo not drawn)
inactive: dose: 45.0 mg/kg/injection, schedule: Q01DX009 (ip), vehicle: Klucel (hydroxypropylcellulose) (HPC) 98 % of control and 100 % of control | dose: 50.0 mg/kg/injection, schedule: Q04DX003 (ip), vehicle: Klucel (hydroxypropylcellulose) (HPC) 96 % of control | dose: 65.0 mg/kg/injection, schedule: Q01DX009 (ip), vehicle: Klucel (hydroxypropylcellulose) (HPC) 93 % of control and 100 % of control | [1] 94 % of control and 104 % of control | [2] 103 % of control | dose: 150.0 mg/kg/injection, schedule: Q01DX009 (ip), vehicle: Klucel (hydroxypropylcellulose) (HPC) 93 % of control and 102 % of control | [3] 106 % of control | [4] 93 % of control and 96 % of control | [5] 101 % of control | [6] 98 % of control

COC(OC)c1nc(SC)[nH]c(=O)c1C
inactive: dose: 100.0 mg/kg/injection, schedule: Q01DX009 (ip), vehicle: saline with Tween-80 88 % of control | dose: 100.0 mg/kg/injection, schedule: Q04DX003 (ip), vehicle: saline with Tween-80 105 % of control | dose: 200.0 mg/kg/injection, schedule: Q01DX009 (ip), vehicle: saline with Tween-80 89 % of control | dose: 200.0 mg/kg/injection, schedule: Q04DX003 (ip), vehicle: saline with Tween-80 116 % of control | dose: 400.0 mg/kg/injection, schedule: Q01DX009 (ip), vehicle: saline with Tween-80 88 % of control | dose: 400.0 mg/kg/injection, schedule: Q04DX003 (ip), vehicle: saline with Tween-80 112 % of control

Nc1cccc[n+]1CC1(c2ccccc2)OCCO1
inactive: dose: 50.0 mg/kg/injection, schedule: Q01DX001 (ip), vehicle: Klucel (hydroxypropylcellulose) (HPC) 110 % of control | dose: 100.0 mg/kg/injection, schedule: Q01DX001 (ip), vehicle: Klucel (hydroxypropylcellulose) (HPC) 106 % of control

CNC(=O)Oc1ccc([N+](=O)[O-])cc1
inactive: [7] 101 % of control | [8] 101 % of control | [9] 104 % of control

Cc1cc(Cl)c(OC(=O)Nc2ccccc2C(F)(F)F)cc1C
inactive: [1] 107 % of control | [3] 107 % of control | [5] 98 % of control

CCn1c(=O)n(C)c(=O)n1C(=O)c1ccccc1
inactive: dose: 100.0 mg/kg/injection, schedule: Q04DX003 (ip), vehicle: carboxymethylcellulose (CMC) 102 % of control | dose: 200.0 mg/kg/injection, schedule: Q04DX003 (ip), vehicle: carboxymethylcellulose (CMC) 104 % of control | dose: 400.0 mg/kg/injection, schedule: Q04DX003 (ip), vehicle: carboxymethylcellulose (CMC) 109 % of control

C#CCN(C)C(C)=O
inactive: dose: 25.0 mg/kg/injection, schedule: Q01DX009 (ip), vehicle: saline 104 % of control | dose: 25.0 mg/kg/injection, schedule: Q04DX003 (ip), vehicle: saline 95 % of control | dose: 50.0 mg/kg/injection, schedule: Q01DX009 (ip), vehicle: saline 102 % of control | dose: 50.0 mg/kg/injection, schedule: Q04DX003 (ip), vehicle: saline 101 % of control | dose: 100.0 mg/kg/injection, schedule: Q01DX009 (ip), vehicle: saline 105 % of control | [10] 96 % of control and 101 % of control

CCCCCCCC/C=C\CCCCCCCC(=O)N1CC[N+](C)(C)CC1
inactive: dose: 5.0 mg/kg/injection, schedule: Q01DX001 (ip), vehicle: saline 96 % of control | dose: 10.0 mg/kg/injection, schedule: Q01DX001 (ip), vehicle: saline 104 % of control | dose: 20.0 mg/kg/injection, schedule: Q01DX001 (ip), vehicle: saline 93 % of control | dose: 40.0 mg/kg/injection, schedule: Q01DX001 (ip), vehicle: saline 93 % of control

CN(C=O)c1ccccc1
inactive: dose: 100.0 mg/kg/injection, schedule: Q04DX002 (ip), vehicle: saline 106 % of control | dose: 200.0 mg/kg/injection, schedule: Q04DX002 (ip), vehicle: saline 102 % of control | dose: 400.0 mg/kg/injection, schedule: Q04DX002 (ip), vehicle: saline 95 % of control

CCOC(=O)NC(=O)C1C2CC3OC(=O)C1C3C2 (stereo not drawn)
inactive: [10] 102 % of control | [11] 102 % of control | [12] 98 % of control

CC1CCC(C(C)C)/C(=N\O)C1 (stereo not drawn)
inactive: dose: 100.0 mg/kg/injection, schedule: Q01DX001 (ip), vehicle: saline with Tween-80 93 % of control | dose: 200.0 mg/kg/injection, schedule: Q01DX001 (ip), vehicle: saline with Tween-80 97 % of control | dose: 400.0 mg/kg/injection, schedule: Q01DX001 (ip), vehicle: saline with Tween-80 93 % of control

COC1(OC)C2(Cl)C(Cl)=C(Cl)C1(Cl)C1C(=O)C=CC(=O)C12 (stereo not drawn)
inactive: [1] 104 % of control | [2] 100 % of control | [10] 98 % of control | [3] 96 % of control | [4] 98 % of control | [11] 93 % of control | [5] 98 % of control | [6] 96 % of control | [12] 101 % of control

O=C(CCCC(O)(C1CC1)C1CC1)C1CC1
inactive: dose: 100.0 mg/kg/injection, schedule: Q01DX009 (ip), vehicle: acetone 106 % of control | dose: 100.0 mg/kg/injection, schedule: Q04DX003 (ip), vehicle: acetone 112 % of control | dose: 200.0 mg/kg/injection, schedule: Q01DX009 (ip), vehicle: acetone 106 % of control | dose: 200.0 mg/kg/injection, schedule: Q04DX003 (ip), vehicle: acetone 101 % of control | dose: 400.0 mg/kg/injection, schedule: Q01DX009 (ip), vehicle: acetone 109 % of control | dose: 400.0 mg/kg/injection, schedule: Q04DX003 (ip), vehicle: acetone 101 % of control

O=C(NCCCl)NC1C2CC3CC(C2)CC1C3 (stereo not drawn)
inactive: [7] 93 % of control | [8] 89 % of control | [9] 89 % of control

CC(C)(CBr)CC(=O)NC1CCCCC1
inactive: dose: 50.0 mg/kg/injection, schedule: Q01DX001 (ip), vehicle: saline 98 % of control | dose: 100.0 mg/kg/injection, schedule: Q01DX001 (ip), vehicle: saline 98 % of control | dose: 200.0 mg/kg/injection, schedule: Q01DX001 (ip), vehicle: saline 96 % of control | dose: 400.0 mg/kg/injection, schedule: Q01DX001 (ip), vehicle: saline 104 % of control
